Measured values from US20100009352A1, “Method for Modeling a Disease” (priority 2006, published 2010).

Assays:
PC12-HttQ103 cells = experiment: cellular systems biology model of Huntington's Disease, mutant huntingtin-GFP expression; assay type: cell-based, rat
Protocol: FIG. 10 are example cellular systems biology profiling images for a model of Huntington's Disease (HD). PC12-HttQ103 cells were seeded in 384-well plates +/− NGF (100 ng/ml). At two days post-seeding cells were induced with 200 nM RSL1 +/− NGF (100 ng/ml) for 48 h. Following fixation, cells were stained with Hoechst and with antibodies raised against tubulin and phospho c-Jun. Tubulin was detected with a donkey anti mouse Cy3 conjugated secondary antibody and phospho c-Jun was visualized with a donkey anti rabbit Cy5 conjugated secondary antibody. Images were captured with an HCS instrument and Hoechst-stained nuclei, mutant huntingtin-GFP expression, phospho c-Jun labeled nuclei, and tubulin-stained cells are shown. […]
FIG. 11 is a graph illustrating that mutant huntingtin aggregation correlates with cell loss. […] Images were captured with an HCS instrument and the cell number and % cells with aggregates were determined with standard imaging algorithms. […]
FIG. 14. are graphs illustrating little correlation between aggregate formation and differentiation PC12-Htt-Q103 cells were treated and stained as stated in FIG. 10. Aggregate formation in untreated and NGF-treated populations was measured with standard imaging algorithms. Mean neurite count and mean branch point distance form the cell body was also measured. […]

PC12T cells = experiment: cellular systems biology profile of GFP-Htt aggregate formation with compound treatment; assay type: cell-based
Protocol: To test if there was an interrelationship between the modulation of the microtubule cytoskeleton and the formation of huntingtin protein (Htt) aggregates, cells were induced to produce fluorescently labeled huntingtin protein (GFP-Htt). Soon thereafter, the same Cells were treated with a set of compounds including several microtubule modulators. Cellular systems biology profiling can be used to define the interrelationships between several cellular features including microtubule cytoskeletal stability, cell cycle regulation, GFP-Htt aggregate formation, and nuclear morphology.
In one embodiment, 7.5×10^+6 PC12T cells were plated into T25 tissue culture flasks and panasterone A was added to a final concentration of 5 μM. After an overnight incubation, the cells were trypsinized and replated onto collagen I coated 384-well microplates at a density of 10000 cells per well in medium containing 1 μM panasterone A (24 h after the first panasterone A treatment began). Cells were treated for 26 h with 14 compounds at 12 concentrations each ranging from <1 nM to 50 μM. At the end of the incubation period, cells were fixed with 3.7% formaldehyde, permeabilized with 0.5% Triton X-100 detergent, and labeled with primary-secondary antibody pairs to measure microtubule stability (α-tubulin) and mitotic events (phospho-histone […]). Cells were also labeled with Hoechst 33342 (5 μg/ml) to provide measurements of cell cycle regulation (DNA content), changes in cell number, and multiple nuclear morphology measurements including chromatin condensation and nuclear size and shape.
To build a cellular systems biology profile of the cellular response to GFP-Htt aggregation and compound treatment, the following example cellular systems biology response profile features can be calculated from responses of cell populations either expressing GFP-Htt or not expressing GFP-Htt that can be separated mathematically from each other and analyzed separately.

| Structure (SMILES) | cell number (PC12-HttQ103 cells; 200 nM RSL1, as a function of treatment time) | % cells with aggregates (PC12-HttQ103 cells; 200 nM RSL1 induction) | compound induced modulation of cell cycle regulation (2 n/4 n distribution ratio) (PC12T cells; cells with GFP-Htt aggregates versus cells without aggregates, 26 h treatment) | sensitivity to the microtubule destabilizing activity (PC12T cells; cells with aggregates versus cells without aggregates) | Nocodazole-induced cell cycle regulation and nuclear morphological changes (PC12T cells; in cells containing GFP-Htt aggregates) |
| --- | --- | --- | --- | --- | --- |
| CCc1c(OC)cccc1C(=O)NN(C(=O)c1cc(C)cc(C)c1)C(C)(C)C [RSL1] | decreased | 50% |  |  |  |
| COC(=O)Nc1nc2ccc(C(=O)c3cccs3)cc2[nH]1 [nocodazole] |  |  | less responsive | greater sensitivity | partially inhibited |
